Experimental data published in paper PMC6017631, “The Effect of Combining Natural Terpenes and Antituberculous Agents against Reference and Clinical Mycobacterium tuberculosis Strains” (Molecules : A Journal of Synthetic Chemistry and Natural …, 2018).
Values after ≈ are worked out from the molar mass of the structure shown. Where two headings read alike, the source gives them in different places. Marks after values point to notes of the source that are not given here.

How the values were obtained:
[1] = system: clinical isolate 192 (susceptible); test: microbe, parasite or virus in culture; assay type: cell-based, Mycobacterium tuberculosis
GMK cells = test: Cytotoxicity, MTT assay; assay type: cell-based, African green monkey; details: GMK cells, 48 h exposure, MTT; highest tested concentration 500 μg/mL
Experimental: (§1) The cytotoxicity experiment was performed using African green monkey kidney epithelial cells (GMK) obtained from BIOMED-Lublin S.A. (Lublin, Poland). The cells were cultured in EMEM medium (ATCC-LGC Standards, Cumberland, ME, USA) supplemented with 10% foetal bovine serum (FBS, Pan-Biotech, Aidenbach, Germany), penicillin (100 U/mL), and streptomycin (100 μg/mL) (Sigma-Aldrich, St. Louis, MO, USA). The GMK cells were maintained at 37 °C in a humidified atmosphere of 5% CO2 and 95% air. The GMK cells were seeded in 96-multiwell plates in 100 μL of the complete EMEM medium at a concentration of 3 × 10^5 cells/mL (3 × 10^4 cells/well) and the plates were maintained at 37 °C for 24 h. Then, the culture medium was replaced with 100 µL of different concentrations of tested agents and 2 reference anti-mycobacterial drugs—rifampicin and isoniazid. The stock solutions of all compounds were prepared in DMSO (Sigma-Aldrich, St. Louis, MO, USA), thus the highest solvent concentrations (1% and 0.5% DMSO) used in the experiment were tested in parallel to exclude potential toxicity associated with the use of DMSO. Different concentrations of the tested agents were obtained by six serial 2-fold dilutions using culture medium (the highest tested concentration was equal 500 µg/mL). GMK cells maintained in culture medium without anti-mycobacterial agent served as a negative control of cytotoxicity. The cells were exposed to tested compounds and reference drugs for 48 h, then cytotoxicity test was performed using MTT assay (Sigma-Aldrich, St. Louis, MO, USA) as it was described previously. The cytotoxicity test was repeated in three separate experiments (n = 3) and each experiment was carried out in quadruplicate. The IC50 values (concentration reducing viability of GMK cells by 50%) were determined using GraphPad Prism 5, Version 5.03 software (GraphPad Software, Inc., La Jolla, CA, USA).

clinical isolate 253/16 = test: microbe, parasite or virus in culture; assay type: cell-based, Mycobacterium tuberculosis
Mtb H37Ra ATTC 25177 = test: MIC determination, serial dilution in Middlebrook 7H9, and FICI; assay type: cell-based, Mycobacterium tuberculosis
H37RV ATTC 25618 = test: as above; assay type: cell-based, Mycobacterium tuberculosis
Cytotoxicity, MTT assay = assay type: cell-based, African green monkey; details: African green monkey; for IC50 at 48 h: GMK cells, 48 h exposure, MTT, highest tested concentration 500 μg/mL
Experimental: as §1

[2] = system: reference virulent strain H37Rv; design: method as in PMID 26400221; details: Alamar Blue technique, 8 days of incubation ref 36; cited from earlier work
Vero cell line = details: cited from earlier work
[3] = compounds tested separately, 192
[4] = compounds tested separately, 253/16
[5] = compounds tested separately, H37Rv
[6] = Mycobacterium tuberculosis, compounds tested separately, read-out: MIC
[7] = Mycobacterium tuberculosis, compounds tested separately, H37Rv, read-out: MIC
[8] = GMK cells (African green monkey kidney epithelial cells)
[9] = Mycobacterium tuberculosis, H37RV
[10] = Mycobacterium tuberculosis, read-out: MIC for EMB in a Presence of Terpenes
[11] = Mycobacterium tuberculosis, read-out: MIC for INH in a Presence of Terpenes
[12] = Mycobacterium tuberculosis, read-out: MIC for RMP in a Presence of Terpenes
[13] = Mycobacterium tuberculosis, subinhibitory concentration of the terpene, read-out: MIC for EMB in a Presence of Terpenes
[14] = Mycobacterium tuberculosis, subinhibitory concentration of the terpene, read-out: MIC for INH in a Presence of Terpenes
[15] = Mycobacterium tuberculosis, subinhibitory concentration of the terpene, read-out: MIC for RMP in a Presence of Terpenes
[16] = Mycobacterium tuberculosis, H37RV, read-out: MIC for INH in a Presence of Terpenes
[17] = Mycobacterium tuberculosis, H37Rv, subinhibitory concentration of the terpene, read-out: MIC for EMB in a Presence of Terpenes
[18] = Mycobacterium tuberculosis, H37Rv, subinhibitory concentration of the terpene, read-out: MIC for RMP in a Presence of Terpenes

## C=C(C)[C@H]1CC=C(C)CC1 [(R)-limonene]
[1]; [3]
  MIC: 128 µg/mL (≈ 940 µM)
GMK cells
  IC50 (cytotoxicity): >500 µg/mL
Clinical isolate 253/16; [4]
  MIC: 256 µg/mL (≈ 1880 µM)
Mtb H37Ra ATTC 25177; compounds tested separately
  MIC: 32 µg/mL
H37RV ATTC 25618; [5]
  MIC: 128 µg/mL

## CC[C@@H](CO)NCCN[C@@H](CC)CO [EMB, ethambutol, reference compound]
[1]; Mycobacterium tuberculosis
  MIC: < 0.125 µg/mL
Clinical isolate 253/16; Mycobacterium tuberculosis
  MIC: 64 µg/mL (≈ 313 µM)
Mtb H37Ra ATTC 25177; [6]
  MIC: 4 µg/mL
H37RV ATTC 25618; [7]
  MIC: 0.25 µg/mL

## NNC(=O)c1ccncc1 [INH, isoniazid, reference compound]
[1]; Mycobacterium tuberculosis
  MIC: < 0.125 µg/mL
Cytotoxicity, MTT assay; [8]
  IC50 at 48 h: > 500 µg/mL
Clinical isolate 253/16; Mycobacterium tuberculosis
  MIC: 8 µg/mL (≈ 58.3 µM)
Mtb H37Ra ATTC 25177; [6]
  MIC: 0.125 µg/mL
H37RV ATTC 25618; [9]
  MIC: < 0.125 µg/mL

## CO[C@H]1/C=C/O[C@@]2(C)Oc3c(C)c(O)c4c(O)c(c(/C=N/N5CCN(C)CC5)c(O)c4c3C2=O)NC(=O)/C(C)=C\C=C\[C@H](C)[C@H](O)[C@@H](C)[C@@H](O)[C@@H](C)[C@H](OC(C)=O)[C@@H]1C [RMP, rifampicin, reference compound]
[1]; Mycobacterium tuberculosis
  MIC: < 0.125 µg/mL
Cytotoxicity, MTT assay; [8]
  IC50 at 48 h: 142 µg/mL (≈ 172 µM)
Clinical isolate 253/16; Mycobacterium tuberculosis
  MIC: 4 µg/mL (≈ 4.86 µM)
Mtb H37Ra ATTC 25177; [6]
  MIC: 1 µg/mL
H37RV ATTC 25618; [7]
  MIC: 0.25 µg/mL

## CC(C)=CCC[C@](C)(O)C1CC=C(C)CC1 (stereo partly drawn) [bisabolol]
[1]; [3]
  MIC: 16 µg/mL (≈ 72 µM)
GMK cells
  IC50 (cytotoxicity): 71.12 µg/mL (≈ 320 µM)
Clinical isolate 253/16; [4]
  MIC: 128 µg/mL (≈ 576 µM)
Mtb H37Ra ATTC 25177; compounds tested separately
  MIC: 64 µg/mL
H37RV ATTC 25618; [5]
  MIC: 16 µg/mL

## Cc1ccc(C(C)C)cc1O [carvacrol]
[2]
  MIC: 2.02 µg/mL (≈ 13.4 µM)

## C=CC(=C)CCC=C(C)C [myrcene]
Vero cell line; determined on Vero cell Line ref 31
  IC50 (cytotoxicity): 200 * μg/mL
Vero cell line; up to a concentration of 200 μg/mL, Vero cell line ref 33
  cytotoxic activity: did not present cytotoxic activity
[1]; Mycobacterium tuberculosis
  MIC: 256 µg/mL (≈ 1880 µM)
[1]; [10]
  MIC: < 0.125 µg/mL
[1]; [11]
  MIC: < 0.125 µg/mL
[1]; [12]
  MIC: < 0.125 µg/mL
Clinical isolate 253/16; Mycobacterium tuberculosis
  MIC: > 512 µg/mL
Clinical isolate 253/16; [10]
  MIC: 64 µg/mL
Clinical isolate 253/16; [11]
  MIC: 8 µg/mL
Clinical isolate 253/16; [12]
  MIC: 4 µg/mL
Mtb H37Ra ATTC 25177; [6]
  MIC: 128 µg/mL
Mtb H37Ra ATTC 25177; [13]
  MIC: 0.5 µg/mL
Mtb H37Ra ATTC 25177; [14]
  MIC: 0.0625 µg/mL
Mtb H37Ra ATTC 25177; [15]
  MIC: 0.125 µg/mL
H37RV ATTC 25618; [9]
  MIC: 256 µg/mL
H37RV ATTC 25618; [16]
  MIC: < 0.125 µg/mL
H37RV ATTC 25618; [17]
  MIC: 0.25 µg/mL
H37RV ATTC 25618; [18]
  MIC: 0.25 µg/mL

## Cc1ccc(C(C)C)cc1 [p-cymene]
[2]
  MIC: 91 µg/mL (≈ 678 µM)

## C=C1CCC2(C(C)C)CC12 (stereo not drawn) [sabinene]
[1]; Mycobacterium tuberculosis
  MIC: 128 µg/mL (≈ 940 µM)
[1]; [10]
  MIC: < 0.125 µg/mL
[1]; [11]
  MIC: < 0.125 µg/mL
[1]; [12]
  MIC: < 0.125 µg/mL
Cytotoxicity, MTT assay
  IC50 at 48 h: 348 µg/mL (≈ 2550 µM)
Clinical isolate 253/16; Mycobacterium tuberculosis
  MIC: 256 µg/mL (≈ 1880 µM)
Clinical isolate 253/16; [10]
  MIC: 64 µg/mL
Clinical isolate 253/16; [11]
  MIC: 8 µg/mL
Clinical isolate 253/16; [12]
  MIC: 4 µg/mL
Mtb H37Ra ATTC 25177; [6]
  MIC: 64 µg/mL
Mtb H37Ra ATTC 25177; [13]
  MIC: 0.5 µg/mL
Mtb H37Ra ATTC 25177; [14]
  MIC: 0.0625 µg/mL
Mtb H37Ra ATTC 25177; [15]
  MIC: 0.0625 µg/mL
H37RV ATTC 25618; [9]
  MIC: 128 µg/mL
H37RV ATTC 25618; [16]
  MIC: < 0.125 µg/mL
H37RV ATTC 25618; [17]
  MIC: 0.25 µg/mL
H37RV ATTC 25618; [18]
  MIC: 0.25 µg/mL

## Cc1ccc(C(C)C)c(O)c1 [thymol]
[2]
  MIC: 0.78 µg/mL (≈ 5.19 µM)

## CC1=CCC2CC1C2(C)C (stereo not drawn) [α-pinene]
[1]; Mycobacterium tuberculosis
  MIC: 128 µg/mL (≈ 940 µM)
[1]; [10]
  MIC: < 0.125 µg/mL
[1]; [11]
  MIC: < 0.125 µg/mL
[1]; [12]
  MIC: < 0.125 µg/mL
Cytotoxicity, MTT assay; [8]
  IC50 at 48 h: > 500 µg/mL
Cytotoxicity, MTT assay; GMK cells (African green monkey kidney epithelial cells), exposure to the highest tested concentration (500 μg/mL)
  viability at 48 h, 500 µg/mL: ~90%
Clinical isolate 253/16; Mycobacterium tuberculosis
  MIC: 256 µg/mL (≈ 1880 µM)
Clinical isolate 253/16; [10]
  MIC: 32 µg/mL
Clinical isolate 253/16; [11]
  MIC: 8 µg/mL
Clinical isolate 253/16; [12]
  MIC: 4 µg/mL
Mtb H37Ra ATTC 25177; [6]
  MIC: 128 µg/mL
Mtb H37Ra ATTC 25177; [13]
  MIC: 1 µg/mL
Mtb H37Ra ATTC 25177; [14]
  MIC: 0.125 µg/mL
Mtb H37Ra ATTC 25177; [15]
  MIC: 0.0625 µg/mL
H37RV ATTC 25618; [9]
  MIC: 128 µg/mL
H37RV ATTC 25618; Mycobacterium tuberculosis, H37RV, read-out: MIC for EMB in a Presence of Terpenes
  MIC: 0.125 µg/mL
H37RV ATTC 25618; [16]
  MIC: < 0.125 µg/mL
H37RV ATTC 25618; [18]
  MIC: 0.25 µg/mL

## C=C1CC/C=C(\C)CC[C@@H]2[C@@H]1CC2(C)C [β-caryophyllene]
[2]
  MIC: 100 µg/mL (≈ 489 µM)

## C=C[C@]1(C)CC[C@@H](C(=C)C)C[C@H]1C(=C)C [β-elemene]
[1]; [3]
  MIC: 256 µg/mL (≈ 1250 µM)
Clinical isolate 253/16; [4]
  MIC: >512 µg/mL
Mtb H37Ra ATTC 25177; compounds tested separately
  MIC: 32 µg/mL
H37RV ATTC 25618; [5]
  MIC: 256 µg/mL

## (S)-limonene
[1]; [3]
  MIC: 256 µg/mL
GMK cells
  IC50 (cytotoxicity): >500 µg/mL
Clinical isolate 253/16; [4]
  MIC: >512 µg/mL
Mtb H37Ra ATTC 25177; compounds tested separately
  MIC: 32 µg/mL
H37RV ATTC 25618; [5]
  MIC: 256 µg/mL
